Measured values: patent publication US20240417773A1 (priority 2022, published 2024)
Where two headings read alike, the source gives them in different places.

Assays:
[1] = tested on: spores of the Bacillus atrophaeus; conditions: 50° C., 1.74 mg/L; for Observation result: excitation 365 nm
Description: A bacterial carrier on each indicator includes about 106 spores of the Bacillus atrophaeus. The six indicators are divided into three groups, each of which has two indicators. […] A treatment for 0 sec at 50° C. means that no treatment is performed, and is a control group; a treatment for 20 sec at 50° C. simulates a condition of incomplete sterilization; and treatment for 60 sec at 50° C. simulates a condition of successful sterilization where all the spores are supposed to be skilled theoretically. An exposure position of the indicator is located at a cold spot of a sterilization device. A sample subjected to the sterilization treatment is transferred onto a bechtop. Bacteria strips included in the biological indicators in the three groups after the sterilization treatment are taken out by means of sterilized tweezers, put in a sterile centrifuge tube, added with an appropriate quantity of sterile recovered liquid (0.1% polysorbate 80, and 0.03 M phosphate buffer liquid with pH being 7.2), fully oscillated and crushed. Afterwards, the centrifuge tube is put in an ice-bath for cooling.
Then, a sample in the centrifuge tube is subjected to centrifugation (a centrifugal force being 2000×g, a temperature being 4° C. and a centrifugation duration being 20 min), an obtained supernatant passes through a 10 μm millipore filter (a spore diameter is 1 μm to 2 μm, so in order to make the spores pass through the filter and the bacteria strip slags are blocked, a filter of 2 μm or above is needed), so as to obtain filtrate.
An appropriate amount of sterile recovered liquid is added into filtered slags (a main component is a crushed bacteria strip fiber) obtained after the above centrifugal filtration, after oscillating and shaking well, the above centrifugal filtration process is repeated, filtrate including thermal-damaged spores is further recovered, repetition is performed for 2 to 3 times like this, and the filtrate obtained by each centrifugal filtration is gathered as the spore suspension.
(§1) One drop of the liquid medium (30 g/L agar and 15 g/L tryptic soy broth) subjected to high-temperature sterilization is dropwise added onto an object slide, after this drop of the liquid medium is solidified, one drop of the 4-MUG with a concentration being 210 mg/L is dropwise added onto the solid medium, and a moment later, the 4-MUG fully infiltrates into the solid medium.
(§2) One drop of the spore suspension (including the thermal-damaged spores) is dropwise added onto the solid medium.
The number and sizes of fluorescent spots are observed under the observation system. […]

[2] = tested on: spore strips produced by Xinhua Mesa®Strip; conditions: 50° C., 1.74 mg/L; for Observation result: excitation 365 nm
Description: This embodiment selects six spore strips produced by Xinhua Mesa®Strip, which are divided into three groups and each group has two strips. […] A treatment for 0 sec at 50° C. means that no treatment is performed, and is a control group; a treatment for 20 sec at 50° C. simulates a condition of incomplete sterilization; and treatment for 60 sec at 50° C. simulates a condition of successful sterilization where all the spores are supposed to be skilled theoretically. An exposure position of the indicator is located at a cold spot of a sterilization device. A sample subjected to the sterilization treatment is transferred onto a bechtop. Bacteria strips included in the biological indicators in the three groups after the sterilization treatment are taken out by means of sterilized tweezers, put in a sterile centrifuge tube, added with an appropriate amount of sterile recovered liquid (0.1% polysorbate 80, and 0.03 M phosphate buffer liquid with pH being 7.2), fully oscillated and crushed. Afterwards, the centrifuge tube is put in an ice-bath for cooling.
as §1, §2
The number and sizes of fluorescent spots are observed under the observation system. The observation system is composed of four parts: 1) a stereoscopic microscope (a brand model may be: Nikon SMZ800); 2) a time gating camera (a brand model may be: Photonics Research Systems, Salford, UK) mounted on the above stereoscopic microscope; 3) a xenon flash lamp (a brand model may be: PerkinElmer, Waltham, MA) forming a 45° angle relative to a sample; and 4) a temperature-controlled microscope object slide stand (a brand model may be: Thermal).
Parameters set for the observation system are as follows: the xenon flash lamp has an excitation wavelength of 365 nm and an excitation slit width of 10 nm. Observed by the stereoscopic microscope, an emission wavelength is 544 nm, and an emission slit is 10 nm.

Compound: OO [hydrogen peroxide]
- Conclusion ([1]; 20 sec): Incomplete
- Observation result ([1]; 20 sec): A certain quantity of scattered
- Conclusion ([1]; 60 sec): Complete
- Observation result ([1]; 60 sec): No fluorescent spot
- Conclusion ([2]; 20 sec): Incomplete
- Observation result ([2]; 20 sec): A certain quantity of scattered
- Conclusion ([2]; 60 sec): Complete
- Observation result ([2]; 60 sec): No fluorescent spot
